From US5843916A, “Cyclic amp analogues, individually and in pairs, to inhibit neoplastic cell growth” (priority 1994, dated 1998)
Like-named read-outs stand apart in the source and are kept apart here.

Assays:
[1] = test system: LS-174T human colon carcinoma cells; test: Growth inhibition of LS-174T cells (Example 4, Table 18); format: cell-based; conditions: for inhibition at 10 µM / inhibition at 50 µM: Homo sapiens, LS174T; for growth inhibitory potency: LS-174T
Procedure: LS-174T human colon carcinoma cells were obtained from the National Cancer Institute, Division of Cancer Treatment, Bethesda, Md., and were grown in Eagle's minimum essential medium supplemented with 10% heat-inactivated fetal bovine serum, Eagle's minimum essential medium nonessential amino acids, 20 mM 4-(2-hydroxyethyl)-1-piperazineethanesulfonic acid, 2mM glutamine, and penicillin-streptomycin (Gibco). The medium was changed every 48 hours.
LS-174T cells were seeded at a density of 2×10^5 / 60 mm dish. […] At desired times, cell counts were performed in duplicate on a Coulter Counter after harvesting cells with gentle trypsinization.
The percentage growth inhibition values shown at 10
and 50 μM analogue concentrations were determined from
the dose-response curve experiments like those shown in
FIG. 1 and represent an average value obtained for each
analogue from two or more separate experiments. Sp-6-SET-

[2] = test system: breast (MCF-7) and colon (LS-174T) cancer cell lines; test: Growth inhibition of breast and colon cancer cells (Table 1); format: cell-based, human; conditions: for inhibition at 50 µM: Homo sapiens
Procedure: The compounds of the present invention were added using 100X concentrated stock solutions. At desired times, cell counts in duplicate were performed on a Coulter counter after harvesting the cells with gentle trypsinization. […] Cell counts were performed on each of three or more separate experiments, and the average values are expressed as percent growth inhibition as compared with untreated control cells. | ^a The values of percentage growth inhibition were determined from th | doseresponse curve experiments. Each value represents an average value an | range (in parentheses) obtained from three or more separate experiments. | The cell counts in duplicate were performed at day 3 and day 4 after two | treatments (day 0 and day 2) with analogs (seeding on day -1).

[3] = target: T1, RI, regulatory subunit of cAMP-dependent protein kinase type I (Oryctolagus cuniculus, UniProt G1TDN4); test: Binding affinity for RI (Table 14); conditions: vs cyclophosphate
T1 construct: from tissue
T1 sequence (G1TDN4 1-381): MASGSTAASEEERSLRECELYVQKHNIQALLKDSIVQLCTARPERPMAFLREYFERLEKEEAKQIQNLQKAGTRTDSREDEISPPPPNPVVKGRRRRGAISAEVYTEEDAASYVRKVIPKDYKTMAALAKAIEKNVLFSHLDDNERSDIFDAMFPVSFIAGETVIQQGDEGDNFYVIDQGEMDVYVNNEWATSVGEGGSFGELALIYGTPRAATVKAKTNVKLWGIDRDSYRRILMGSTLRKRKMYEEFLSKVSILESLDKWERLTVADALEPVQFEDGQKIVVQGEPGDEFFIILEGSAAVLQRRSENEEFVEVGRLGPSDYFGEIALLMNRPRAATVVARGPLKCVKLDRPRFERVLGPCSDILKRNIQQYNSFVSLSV
Procedure: (§1) RI and RII are the regulatory subunits of cAMP-dependent protein
(§2) kinase type I and type II, respectively. Site A (Site 2) and Site B
(§3) (RI and RII): the affinities of analogues for Site A and Site B were
(§4) determined by the measurement of kinetic constants (inhibition constant,
(§5) Ki), and the values are expressed as the relative affinity Ki
(§6) (analogue), i.e., the ratio between the apparent inhibition constant for
(§7) cAMP and the analogue, as described in Ogreid et al., Eur. J. Biochem.

[4] = target: T2, RII, regulatory subunit of cAMP-dependent protein kinase type II (Bos taurus, UniProt P00515); test: Binding affinity for RII (Table 14); conditions: vs cyclophosphate
T2 construct: from tissue
T2 sequence (P00515 whole entry): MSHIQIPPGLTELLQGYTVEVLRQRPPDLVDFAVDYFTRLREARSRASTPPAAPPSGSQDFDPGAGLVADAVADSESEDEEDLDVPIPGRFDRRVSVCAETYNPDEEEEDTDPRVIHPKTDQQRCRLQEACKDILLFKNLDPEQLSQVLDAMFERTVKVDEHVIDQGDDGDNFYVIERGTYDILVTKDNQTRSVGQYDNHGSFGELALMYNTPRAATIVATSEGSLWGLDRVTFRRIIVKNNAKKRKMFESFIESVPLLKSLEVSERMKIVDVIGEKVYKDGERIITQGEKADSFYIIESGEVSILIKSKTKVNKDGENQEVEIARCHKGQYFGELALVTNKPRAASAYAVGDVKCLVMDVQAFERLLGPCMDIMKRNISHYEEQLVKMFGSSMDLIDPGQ
Procedure: as §1, §2, §3, §4, §5, §6, §7

[5] = target: T2, RII, regulatory subunit of cAMP-dependent protein kinase type II; conditions: literature, cited from earlier work; for relative affinity Ki (cAMP)/Ki (analogue), RII Site A: Site A (Site 2); for relative affinity Ki (cAMP)/Ki (analogue), RII Site B: Site B (Site 1)
[6] = target: T1, RI, regulatory subunit of cAMP-dependent protein kinase type I; conditions: literature, cited from earlier work; for relative affinity Ki (cAMP)/Ki (analogue), RI Site A: Site A (Site 2); for relative affinity Ki (cAMP)/Ki (analogue), RI Site B: Site B (Site 1)
[7] = test system: HL-60 human leukemia cells; test: Growth inhibition of HL-60 leukemia cells (Example 3, Table 16); format: cell-based
Procedure: HL-60 leukemic cells were obtained from the American Type Culture Collection (Rockville, Md.) and were grown in suspension culture in RPMI 1640 supplemented with 10% heat-inactivated fetal bovine serum, streptomycin (500 μg/ml), penicillin (50 units/ml), and glutamine (1 mM) (Gibco, Grand Island, N.Y.).
Cell counts were performed at desired times on a Coulter Counter.
The IC50 values were determined from the dose-
represent an average value obtained for each analogue
from two or more separate experiments carried out from 3
days or 6 days. Initial cell number, 1 × 10^5 /dish.
Typical numbers of untreated control cells at day 3 and
viability in treated and control cells.

[8] = test system: HL-60; test: Growth inhibition of leukemic cells (Table 12); format: cell-based; conditions: Homo sapiens
[9] = test system: myc-K562; test: Growth inhibition of leukemic cells (Table 12); format: cell-based; conditions: Homo sapiens
[10] = test system: K-562; test: Growth inhibition of leukemic cells (Table 12); format: cell-based; conditions: Homo sapiens, K562
[11] = test system: Molt-4; test: Growth inhibition of leukemic cells (Table 12); format: cell-based, human; conditions: Homo sapiens, MOLT-4; read-out: Inhibition of Growth IC50, Molt-4
[12] = test system: four leukemic cell lines (HL-60, K-562, myc-K562, Molt-4); test: Growth inhibition of leukemic cell lines; format: cell-based, human
[13] = test system: LS-174T human colon carcinoma cells; test: Additive growth inhibition with 8-Cl-cAMP (Table 19); format: cell-based
Procedure: The medium was changed every 48 hours.
At desired times, cell counts were performed in duplicate on a Coulter Counter after harvesting cells with gentle trypsinization.
The analogues were added at 24

[14] = test system: breast and colon cancer lines (MCF-7, T-47D, ZR-75-1, MCF-7ras, MDA-MB-231, BT-20, HBL-100, LS-174T, WiDr, HT-29); test: Growth inhibition of breast and colon cancer lines (FIG. 1); format: cell-based, human; conditions: 0.1 mM, alone
[15] = 72 h, 50 μM, day 3, average (range), read-out: % Growth Inhibition, Day 3
[16] = 96 h, 50 μM, day 4, average (range), read-out: % Growth Inhibition, Day 4
[17] = 50 micromolar, read-out: growth inhibition
[18] = Homo sapiens, HL-60, read-out: growth inhibition

## CCSc1ncnc2c1ncn2[C@@H]1O[C@@H]2CO[P@](O)(=S)O[C@H]2[C@H]1O [Sp-6-SET-cPMPS, Sp-6-ethylthiopurine-3':5'-monophosphorothioate]
[1]
  inhibition at 10 µM: 25%
  inhibition at 50 µM: 50%
  growth inhibitory potency: moderate potency

## CCOC(=O)Nc1ncnc2c1ncn2[C@@H]1O[C@@H]2COP(=O)(O)O[C@H]2[C@H]1O [N^6 -ethoxycarbonyl-cAMP]
[2]; [15]
  inhibition at 50 µM: 32%
[2]; [16]
  inhibition at 50 µM: 40%
[2]; [17]
  inhibition at 50 µM: 30 to 70%

## O=P1(O)OC[C@H]2O[C@@H](n3c(SCc4ccccc4)nc4c(NCc5ccccc5)ncnc43)[C@H](O)[C@@H]2O1 [N^6-benzyl-8-benzylthio-cAMP]
[2]; [15]
  inhibition at 50 µM: 25%
[2]; [16]
  inhibition at 50 µM: 23%

## Nc1ncnc2c1nc(NCCO)n2[C@@H]1O[C@@H]2COP(=O)(O)O[C@H]2[C@H]1O [8-β-hydroxyethylamino-cAMP]
[2]; [15]
  inhibition at 50 µM: 15%
[2]; [16]
  inhibition at 50 µM: 20%
[2]; [17]
  inhibition at 50 µM: ≤ 20%

## Nc1ncnc2c1nc(Br)n2[C@@H]1O[C@@H]2CO[P@](O)(=S)O[C@H]2[C@H]1O [Sp-8-Br-cAMPS]
[3]
  decrease in affinity for Site A of RI vs corresponding cyclophosphate: 7 fold
  decrease in affinity for Site B of RI vs corresponding cyclophosphate: 19 fold
[4]
  decrease in affinity for Site A of RII vs corresponding cyclophosphate: 37 fold
  decrease in affinity for Site B of RII vs corresponding cyclophosphate: 3.1 fold
[1]
  inhibition at 10 µM: 40%
  inhibition at 50 µM: 60%
  growth inhibitory potency: greatest inhibition of cell growth
[5]
  relative affinity Ki (cAMP)/Ki (analogue), RII Site A: 0.003
  relative affinity Ki (cAMP)/Ki (analogue), RII Site B: 2.2
[6]
  relative affinity Ki (cAMP)/Ki (analogue), RI Site A: 0.19
  relative affinity Ki (cAMP)/Ki (analogue), RI Site B: 0.054
[7]; Homo sapiens, HL-60, 72 h, read-out: Growth inhibition (IC50), Day 3
  IC50: 28 µM
[7]; Homo sapiens, HL-60, 144 h, read-out: Growth inhibition (IC50), Day 6
  IC50: 3 µM
[7]; [18]
  inhibition at 20 µM: 47%
[7]; IC50, day 6
  fold more potent than 8-Br-cAMP: 6 fold

## CCN(CC)c1ncnc2c1nc(Sc1ccc(Cl)cc1)n2[C@@H]1O[C@@H]2COP(=O)(O)O[C@H]2[C@H]1O [N^6,N ^6-diethyl-8-p-chlorophenylthio-cAMP]
[2]; [15]
  inhibition at 50 µM: 43%
[2]; [16]
  inhibition at 50 µM: 45%

## O=P1(O)OC[C@H]2O[C@@H](n3c(Sc4ccc(Cl)cc4)nc4c(Nc5ccccc5)ncnc43)[C@H](O)[C@@H]2O1 [N^6-phenyl-8-p-chlorophenylthio-cAMP]
[2]; 50 micromolar
  growth inhibition: most potent growth inhibition among the C-6,-8 disubstituted analogues
[2]; [15]
  inhibition at 50 µM: 60%
[2]; [16]
  inhibition at 50 µM: 47%

## Nc1ncnc2c1ncn2[C@@H]1O[C@@H]2CO[P@](O)(=S)O[C@H]2[C@H]1O [Sp-cAMPS]
[1]
  inhibition at 10 µM: 7%
  inhibition at 50 µM: 15%
  growth inhibitory potency: least potency
[7]; [18]
  inhibition at 20 µM: < 5%

## CN(C)c1nc2c(N)ncnc2n1[C@@H]1O[C@@H]2COP(=O)(O)O[C@H]2[C@H]1O [8-N,N-dimethylamino-cAMP]
[2]; [15]
  inhibition at 50 µM: 0%
[2]; [16]
  inhibition at 50 µM: 0%
[2]; [17]
  inhibition at 50 µM: ≤ 20%

## O=P1(O)OC[C@H]2O[C@@H](n3c(Sc4ccc(Cl)cc4)nc4c(N5CCCCC5)ncnc43)[C@H](O)[C@@H]2O1 [6-piperidino-8-p-chlorophenylthio-cAMP]
[2]; [15]
  inhibition at 50 µM: 33%
[2]; [16]
  inhibition at 50 µM: 25%

## CCCCNc1ncnc2c1nc(Sc1ccc(Cl)cc1)n2[C@@H]1O[C@@H]2COP(=O)(O)O[C@H]2[C@H]1O [N^6-n-butyl-8-p-chlorophenylthio-cAMP]
[2]; [15]
  inhibition at 50 µM: 15%
[2]; [16]
  inhibition at 50 µM: 22%

## Nc1ncnc2c1nc(Br)n2[C@@H]1O[C@@H]2COP(=O)(O)O[C@H]2[C@H]1O [8-Br-cAMP, 8-bromo-adenosine 3': 5'-monophosphate]
[8]
  IC50: 50 µM
[9]
  IC50: 100 µM
[10]
  IC50: 100 µM
[11]
  IC50: 100 µM
[5]
  relative affinity Ki (cAMP)/Ki (analogue), RII Site A: 0.11
  relative affinity Ki (cAMP)/Ki (analogue), RII Site B: 6.8
[6]
  relative affinity Ki (cAMP)/Ki (analogue), RI Site A: 1.30
  relative affinity Ki (cAMP)/Ki (analogue), RI Site B: 1.0
[12]; leukemic cell lines
  times less potent than 8-Cl-cAMP: 5-20 times
[7]; Homo sapiens, HL-60, 72 h; read-out: Growth inhibition (IC50), Day 3
  IC50: 100 µM
[7]; Homo sapiens, HL-60, 144 h; read-out: Growth inhibition (IC50), Day 6
  IC50: 18 µM
[7]; Homo sapiens, HL-60; 20 μM; read-out: growth inhibition
  inhibition at 20 µM: < 5%
[2]; [15]
  inhibition at 50 µM: 41%
[2]; [16]
  inhibition at 50 µM: 40%
[2]; [17]
  inhibition at 50 µM: 40 to 75%

## Nc1nc(Cl)nc2c1ncn2[C@@H]1O[C@@H]2CO[P@](O)(=S)O[C@H]2[C@H]1O [Sp-2-Cl-cAMPS, Sp-2-Chloroadenosine-3':5'-monophosphorothioate]
[1]
  inhibition at 10 µM: 10%
  inhibition at 50 µM: 25%
  growth inhibitory potency: least potency

## Nc1ncnc2c1nc(I)n2[C@@H]1O[C@@H]2COP(=O)(O)O[C@H]2[C@H]1O [8-iodo-cAMP]
[2]; [15]
  inhibition at 50 µM: 26%
[2]; [16]
  inhibition at 50 µM: 25%

## Nc1ncnc2c1nc(Sc1ccc(Cl)cc1)n2[C@@H]1O[C@@H]2COP(=O)(O)O[C@H]2[C@H]1O [8-p-chlorophenylthio-cAMP]
[2]; [15]
  inhibition at 50 µM: 23%
[2]; [16]
  inhibition at 50 µM: 24%

## Nc1ncnc2c1ncn2[C@@H]1O[C@@H]2CO[P@@](O)(=S)O[C@H]2[C@H]1O [Rp-cAMPS]
[13]; Homo sapiens, LS174T, 96 h, 50 μM, 4 days
  inhibition at 50 µM: 35%
[13]; with 8-Cl-cAMP
  effect on growth-inhibitory effect of 8-Cl-cAMP: additive effect
[1]
  inhibition at 10 µM: 15%
  inhibition at 50 µM: 35%
  growth inhibitory potency: moderate potency
[7]; [18]
  inhibition at 20 µM: < 5%

## O=C(Nc1ccccc1)Nc1ncnc2c1ncn2[C@@H]1O[C@@H]2COP(=O)(O)O[C@H]2[C@H]1O [N^6 -phenylcarbamoyl-cAMP]
[2]; [15]
  inhibition at 50 µM: 10%
[2]; [16]
  inhibition at 50 µM: 10%

## Cn1c(=O)c2[nH]cnc2n(C)c1=O [theophylline, reference compound]
[12]; 0.1 mM, alone
  growth inhibitory effect: little or no growth inhibitory effect
[14]
  growth inhibitory effect: little or no growth inhibitory effect
